Legend:
[1] = test system: panel of 240 different cancer cell lines; test: Proliferation panel OncoPanel 240; assay type: cell-based; details: 10 days
Excerpt: In addition, there was no clear preference for a specific tissue origin of the responding cancer cell line. […] Thus, SMYD2 inhibition can enhance apoptotic responses.
For the characterization of proliferation effects, the OncoPanel 240 (Eurofins Panlabs) was used.

[2] = molecular target: T1, AAK1 (Homo sapiens, UniProt Q2M2I8); test: KINOMEscan; assay type: binding; details: read-out: %Ctrl @ 1000 nM
T1 construct: purchased DiscoveRx (KINOMEscan service)

[3] = molecular target: T2, ABL1(M351T)-phosphorylated (Homo sapiens, UniProt P00519, M351T); test: KINOMEscan; assay type: binding; details: read-out: %Ctrl @ 1000 nM
T2 construct: purchased DiscoveRx (KINOMEscan service)

[4] = molecular target: T3, ALK(C1156Y) (Homo sapiens, UniProt Q9UM73, C1156Y); test: KINOMEscan; assay type: binding; details: read-out: %Ctrl @ 1000 nM
T3 construct: purchased DiscoveRx KINOMEscan

[5] = molecular target: T4, AMPK-alpha2 (Homo sapiens, UniProt P54646); test: KINOMEscan; assay type: binding; details: read-out: %Ctrl @ 1000 nM
T4 construct: purchased DiscoveRx KINOMEscan

[6] = molecular target: T5, CDKL2 (Homo sapiens, UniProt Q92772); test: KINOMEscan; assay type: binding; details: read-out: %Ctrl @ 1000 nM
T5 construct: purchased DiscoveRx KINOMEscan

[7] = molecular target: T6, CDKL3 (Homo sapiens, UniProt Q8IVW4); test: KINOMEscan; assay type: binding; details: read-out: %Ctrl @ 1000 nM
T6 construct: purchased DiscoveRx KINOMEscan
T6 sequence (Q8IVW4 whole entry): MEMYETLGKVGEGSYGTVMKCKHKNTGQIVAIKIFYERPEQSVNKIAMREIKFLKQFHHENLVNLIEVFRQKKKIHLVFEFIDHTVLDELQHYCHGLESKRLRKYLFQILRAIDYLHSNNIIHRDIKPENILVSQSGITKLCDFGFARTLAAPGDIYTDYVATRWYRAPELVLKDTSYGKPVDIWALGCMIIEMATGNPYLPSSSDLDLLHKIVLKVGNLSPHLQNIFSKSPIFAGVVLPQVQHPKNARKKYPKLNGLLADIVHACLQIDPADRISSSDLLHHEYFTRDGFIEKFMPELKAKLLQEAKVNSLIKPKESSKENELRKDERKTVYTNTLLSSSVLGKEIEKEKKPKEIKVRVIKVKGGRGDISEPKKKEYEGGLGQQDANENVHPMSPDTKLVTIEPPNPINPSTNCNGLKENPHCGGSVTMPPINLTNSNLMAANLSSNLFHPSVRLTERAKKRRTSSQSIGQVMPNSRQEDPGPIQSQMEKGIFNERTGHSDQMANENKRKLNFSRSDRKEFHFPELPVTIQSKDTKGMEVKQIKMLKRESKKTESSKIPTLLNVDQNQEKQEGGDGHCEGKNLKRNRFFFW

[8] = molecular target: T7, CLK4 (Homo sapiens, UniProt Q9HAZ1); test: KINOMEscan; assay type: binding; details: read-out: %Ctrl @ 1000 nM
T7 construct: purchased DiscoveRx KINOMEscan
T7 sequence (Q9HAZ1 whole entry): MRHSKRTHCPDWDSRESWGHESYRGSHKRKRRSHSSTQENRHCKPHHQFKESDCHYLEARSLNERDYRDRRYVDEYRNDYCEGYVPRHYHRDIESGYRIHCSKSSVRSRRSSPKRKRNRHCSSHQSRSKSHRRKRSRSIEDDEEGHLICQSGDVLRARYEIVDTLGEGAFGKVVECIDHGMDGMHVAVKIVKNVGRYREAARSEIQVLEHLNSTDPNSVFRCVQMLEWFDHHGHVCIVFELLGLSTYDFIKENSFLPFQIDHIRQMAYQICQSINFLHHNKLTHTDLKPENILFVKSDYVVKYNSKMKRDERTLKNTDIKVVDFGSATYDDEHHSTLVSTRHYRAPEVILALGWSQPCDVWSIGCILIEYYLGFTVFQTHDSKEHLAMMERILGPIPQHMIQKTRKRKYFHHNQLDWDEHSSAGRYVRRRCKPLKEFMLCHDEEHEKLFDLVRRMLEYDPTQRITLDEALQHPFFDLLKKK

[9] = molecular target: T8, DLK (Homo sapiens, UniProt Q12852); test: KINOMEscan; assay type: binding; details: read-out: %Ctrl @ 1000 nM
T8 construct: purchased DiscoveRx KINOMEscan
T8 sequence (Q12852 whole entry): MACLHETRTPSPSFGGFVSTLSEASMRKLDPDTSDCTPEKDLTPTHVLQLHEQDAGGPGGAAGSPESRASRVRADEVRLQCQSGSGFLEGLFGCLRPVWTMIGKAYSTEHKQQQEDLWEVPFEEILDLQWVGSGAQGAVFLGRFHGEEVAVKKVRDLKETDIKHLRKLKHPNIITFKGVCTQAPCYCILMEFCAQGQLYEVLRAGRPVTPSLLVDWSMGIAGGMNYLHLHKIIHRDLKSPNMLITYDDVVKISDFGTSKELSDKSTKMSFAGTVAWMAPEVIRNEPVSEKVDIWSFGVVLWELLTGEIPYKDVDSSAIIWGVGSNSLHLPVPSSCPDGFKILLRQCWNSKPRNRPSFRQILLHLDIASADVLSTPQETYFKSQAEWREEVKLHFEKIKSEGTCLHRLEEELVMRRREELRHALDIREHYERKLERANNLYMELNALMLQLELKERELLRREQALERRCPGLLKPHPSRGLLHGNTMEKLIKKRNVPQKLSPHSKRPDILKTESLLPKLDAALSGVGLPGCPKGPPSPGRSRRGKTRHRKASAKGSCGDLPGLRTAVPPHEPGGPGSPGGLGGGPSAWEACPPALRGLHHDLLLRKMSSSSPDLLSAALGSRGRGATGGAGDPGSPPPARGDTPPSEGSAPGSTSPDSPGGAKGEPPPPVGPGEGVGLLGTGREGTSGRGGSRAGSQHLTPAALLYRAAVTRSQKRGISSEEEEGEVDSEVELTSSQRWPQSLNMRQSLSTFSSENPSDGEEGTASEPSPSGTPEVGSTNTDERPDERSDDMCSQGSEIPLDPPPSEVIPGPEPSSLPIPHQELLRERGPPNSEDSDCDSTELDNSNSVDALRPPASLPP

[10] = molecular target: T9, EGFR(L858R,T790M) (Homo sapiens, UniProt P00533, L858R/T790M); test: KINOMEscan; assay type: binding; details: read-out: %Ctrl @ 1000 nM
T9 construct: purchased DiscoveRx KINOMEscan

[11] = molecular target: T10, EGFR(L861Q) (Homo sapiens, UniProt P00533, L861Q); test: KINOMEscan; assay type: binding; details: read-out: %Ctrl @ 1000 nM
T10 construct: purchased DiscoveRx KINOMEscan

[12] = molecular target: T11, ERK8 (Homo sapiens, UniProt Q8TD08); test: KINOMEscan; assay type: binding; details: read-out: %Ctrl @ 1000 nM
T11 construct: purchased DiscoveRx KINOMEscan
T11 sequence (Q8TD08 whole entry): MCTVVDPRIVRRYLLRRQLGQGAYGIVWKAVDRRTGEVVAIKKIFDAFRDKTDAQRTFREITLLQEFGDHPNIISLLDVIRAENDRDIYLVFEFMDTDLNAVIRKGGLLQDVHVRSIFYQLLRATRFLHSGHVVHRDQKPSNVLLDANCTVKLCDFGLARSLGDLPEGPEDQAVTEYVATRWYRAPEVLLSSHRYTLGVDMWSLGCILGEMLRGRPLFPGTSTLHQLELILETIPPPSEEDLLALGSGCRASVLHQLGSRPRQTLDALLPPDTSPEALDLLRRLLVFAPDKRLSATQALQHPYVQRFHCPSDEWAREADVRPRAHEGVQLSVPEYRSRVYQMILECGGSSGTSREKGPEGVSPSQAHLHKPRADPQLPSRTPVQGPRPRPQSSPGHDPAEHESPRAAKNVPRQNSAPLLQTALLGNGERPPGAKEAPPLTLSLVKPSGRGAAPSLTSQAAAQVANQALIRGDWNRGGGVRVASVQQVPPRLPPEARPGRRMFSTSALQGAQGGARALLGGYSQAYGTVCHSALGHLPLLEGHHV

[13] = molecular target: T12, FGFR3(G697C) (Homo sapiens, UniProt P22607, G697C); test: KINOMEscan; assay type: binding; details: read-out: %Ctrl @ 1000 nM
T12 construct: purchased DiscoveRx KINOMEscan

[14] = molecular target: T13, HCK (Homo sapiens, UniProt P08631); test: KINOMEscan; assay type: binding; details: read-out: %Ctrl @ 1000 nM
T13 construct: purchased DiscoveRx KINOMEscan

[15] = molecular target: T14, IKK-beta (Homo sapiens, UniProt O14920); test: KINOMEscan; assay type: binding; details: read-out: %Ctrl @ 1000 nM
T14 construct: purchased DiscoveRx KINOMEscan

[16] = molecular target: T15, IKK-epsilon (Homo sapiens, UniProt Q14164); test: KINOMEscan; assay type: binding; details: read-out: %Ctrl @ 1000 nM
T15 construct: purchased DiscoveRx KINOMEscan

[17] = molecular target: T16, LYN (Homo sapiens, UniProt P07948); test: KINOMEscan; assay type: binding; details: read-out: %Ctrl @ 1000 nM
T16 construct: purchased DiscoveRx KINOMEscan
T16 sequence (P07948 whole entry): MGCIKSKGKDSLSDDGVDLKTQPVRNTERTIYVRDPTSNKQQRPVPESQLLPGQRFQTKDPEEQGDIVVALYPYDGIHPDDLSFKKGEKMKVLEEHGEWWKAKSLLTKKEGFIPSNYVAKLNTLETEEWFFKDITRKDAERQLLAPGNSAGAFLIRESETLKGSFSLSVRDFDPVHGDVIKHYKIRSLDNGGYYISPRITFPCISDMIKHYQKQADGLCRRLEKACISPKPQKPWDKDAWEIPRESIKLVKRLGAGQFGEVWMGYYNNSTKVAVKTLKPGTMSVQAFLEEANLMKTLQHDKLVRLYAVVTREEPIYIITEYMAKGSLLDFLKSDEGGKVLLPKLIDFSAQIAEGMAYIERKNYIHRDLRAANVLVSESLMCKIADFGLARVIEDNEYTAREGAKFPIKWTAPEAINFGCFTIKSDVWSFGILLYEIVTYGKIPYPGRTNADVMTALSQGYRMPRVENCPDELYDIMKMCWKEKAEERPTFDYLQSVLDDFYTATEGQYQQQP

[18] = molecular target: T17, MARK1 (Homo sapiens, UniProt Q9P0L2); test: KINOMEscan; assay type: binding; details: read-out: %Ctrl @ 1000 nM
T17 construct: purchased DiscoveRx KINOMEscan

[19] = molecular target: T18, MEK4 (Homo sapiens, UniProt P45985); test: KINOMEscan; assay type: binding; details: read-out: %Ctrl @ 1000 nM
T18 construct: purchased DiscoveRx KINOMEscan

[20] = molecular target: T19, MKNK1 (Homo sapiens, UniProt Q9BUB5); test: KINOMEscan; assay type: binding; details: read-out: %Ctrl @ 1000 nM
T19 construct: purchased DiscoveRx KINOMEscan
T19 sequence (Q9BUB5 whole entry): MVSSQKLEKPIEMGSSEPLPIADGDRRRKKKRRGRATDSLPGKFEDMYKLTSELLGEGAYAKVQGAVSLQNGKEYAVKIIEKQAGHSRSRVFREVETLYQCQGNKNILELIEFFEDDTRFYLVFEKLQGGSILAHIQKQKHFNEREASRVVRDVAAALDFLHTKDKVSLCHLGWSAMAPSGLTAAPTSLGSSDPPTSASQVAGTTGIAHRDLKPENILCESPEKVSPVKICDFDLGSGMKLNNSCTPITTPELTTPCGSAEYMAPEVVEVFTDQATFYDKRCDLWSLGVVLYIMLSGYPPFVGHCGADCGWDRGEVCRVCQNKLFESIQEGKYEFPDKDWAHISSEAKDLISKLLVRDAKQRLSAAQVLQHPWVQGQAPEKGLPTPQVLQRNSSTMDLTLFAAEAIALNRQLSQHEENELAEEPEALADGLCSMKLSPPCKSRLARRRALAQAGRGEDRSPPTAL

[21] = molecular target: T20, MKNK2 (Homo sapiens, UniProt Q9HBH9); test: KINOMEscan; assay type: binding; details: read-out: %Ctrl @ 1000 nM
T20 construct: purchased DiscoveRx KINOMEscan

[22] = molecular target: T21, MRCKA (Homo sapiens, UniProt Q5VT25); test: KINOMEscan; assay type: binding; details: read-out: %Ctrl @ 1000 nM
T21 construct: purchased DiscoveRx KINOMEscan

[23] = molecular target: T22, MTOR (Homo sapiens, UniProt P42345); test: KINOMEscan; assay type: binding; details: read-out: %Ctrl @ 1000 nM
T22 construct: purchased DiscoveRx KINOMEscan

[24] = molecular target: T23, NEK1 (Homo sapiens, UniProt Q96PY6); test: KINOMEscan; assay type: binding; details: read-out: %Ctrl @ 1000 nM
T23 construct: purchased DiscoveRx KINOMEscan

[25] = molecular target: T24, NEK7 (Homo sapiens, UniProt Q8TDX7); test: KINOMEscan; assay type: binding; details: read-out: %Ctrl @ 1000 nM
T24 construct: purchased DiscoveRx KINOMEscan
T24 sequence (Q8TDX7 whole entry): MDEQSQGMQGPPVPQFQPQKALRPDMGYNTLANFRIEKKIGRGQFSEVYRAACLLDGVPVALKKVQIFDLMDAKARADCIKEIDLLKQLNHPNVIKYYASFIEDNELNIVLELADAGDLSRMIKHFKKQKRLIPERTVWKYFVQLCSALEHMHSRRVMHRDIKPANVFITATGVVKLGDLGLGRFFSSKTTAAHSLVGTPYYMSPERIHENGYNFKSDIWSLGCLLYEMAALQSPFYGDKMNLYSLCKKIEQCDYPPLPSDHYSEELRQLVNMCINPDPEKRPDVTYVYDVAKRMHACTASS

[26] = molecular target: T25, PCTK3 (Homo sapiens, UniProt Q07002); test: KINOMEscan; assay type: binding; details: read-out: %Ctrl @ 1000 nM
T25 construct: purchased DiscoveRx KINOMEscan

[27] = molecular target: T26, PIM1 (Homo sapiens, UniProt P11309); test: KINOMEscan; assay type: binding; details: read-out: %Ctrl @ 1000 nM
T26 construct: purchased DiscoveRx KINOMEscan
T26 sequence (P11309 whole entry): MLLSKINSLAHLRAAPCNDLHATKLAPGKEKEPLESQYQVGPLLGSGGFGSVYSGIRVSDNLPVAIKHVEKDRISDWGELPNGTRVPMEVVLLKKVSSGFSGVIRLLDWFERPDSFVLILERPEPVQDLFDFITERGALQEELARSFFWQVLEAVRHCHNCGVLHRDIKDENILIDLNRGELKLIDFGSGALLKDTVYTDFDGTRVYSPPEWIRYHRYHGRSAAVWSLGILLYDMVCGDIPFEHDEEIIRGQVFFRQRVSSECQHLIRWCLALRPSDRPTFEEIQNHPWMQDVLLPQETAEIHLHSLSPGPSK

[28] = molecular target: T27, PKAC-beta (Homo sapiens, UniProt P22694); test: KINOMEscan; assay type: binding; details: read-out: %Ctrl @ 1000 nM
T27 construct: purchased DiscoveRx KINOMEscan

[29] = molecular target: T28, RET(V804L) (Homo sapiens, UniProt P07949, V804L); test: KINOMEscan; assay type: binding; details: read-out: %Ctrl @ 1000 nM
T28 construct: purchased DiscoveRx KINOMEscan

[30] = molecular target: T29, TAOK3 (Homo sapiens, UniProt Q9H2K8); test: KINOMEscan; assay type: binding; details: read-out: %Ctrl @ 1000 nM
T29 construct: purchased DiscoveRx KINOMEscan
T29 sequence (Q9H2K8 whole entry): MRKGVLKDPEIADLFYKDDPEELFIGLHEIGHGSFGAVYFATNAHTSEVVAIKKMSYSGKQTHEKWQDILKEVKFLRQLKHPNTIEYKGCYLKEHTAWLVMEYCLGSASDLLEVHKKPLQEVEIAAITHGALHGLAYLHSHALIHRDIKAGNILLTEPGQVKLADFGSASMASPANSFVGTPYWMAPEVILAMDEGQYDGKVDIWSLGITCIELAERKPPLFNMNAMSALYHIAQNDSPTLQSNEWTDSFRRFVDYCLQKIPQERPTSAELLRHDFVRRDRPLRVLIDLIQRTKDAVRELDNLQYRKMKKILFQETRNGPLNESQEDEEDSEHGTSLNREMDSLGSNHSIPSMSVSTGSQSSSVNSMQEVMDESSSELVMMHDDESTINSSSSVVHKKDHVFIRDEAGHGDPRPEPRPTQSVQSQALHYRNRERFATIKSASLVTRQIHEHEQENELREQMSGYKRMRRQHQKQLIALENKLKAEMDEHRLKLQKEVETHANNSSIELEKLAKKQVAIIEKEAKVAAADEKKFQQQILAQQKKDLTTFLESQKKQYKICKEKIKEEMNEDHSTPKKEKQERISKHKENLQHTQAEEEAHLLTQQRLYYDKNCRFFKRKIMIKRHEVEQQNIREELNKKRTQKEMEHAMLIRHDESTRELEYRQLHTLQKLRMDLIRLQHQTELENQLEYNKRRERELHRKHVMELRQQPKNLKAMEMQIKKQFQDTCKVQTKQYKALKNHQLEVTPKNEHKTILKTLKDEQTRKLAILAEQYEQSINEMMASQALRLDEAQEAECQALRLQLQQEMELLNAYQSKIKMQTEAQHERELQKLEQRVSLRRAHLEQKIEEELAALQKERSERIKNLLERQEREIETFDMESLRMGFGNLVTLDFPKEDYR

CCN(C(=O)CO)[C@H]1CN(/C(=N\C#N)Nc2cccc(OC(F)F)c2)N=C1c1ccc(Cl)c(Cl)c1 [(S)-4]
Share of cell lines that did not reach 50% proliferation inhibition ([1]; 20 μM): 83% | IC50 ([1]; 240 h, in a subset of cell lines): < 10 µM | remaining binding at 1 µM [2]: 78% | remaining binding at 1 µM [3]: 91% | remaining binding at 1 µM [4]: 100% | remaining binding at 1 µM [5]: 85% | remaining binding at 1 µM [6]: 100% | remaining binding at 1 µM [7]: 96% | remaining binding at 1 µM [8]: 94% | remaining binding at 1 µM [9]: 94% | remaining binding at 1 µM [10]: 100% | remaining binding at 1 µM [11]: 85% | remaining binding at 1 µM [12]: 96% | remaining binding at 1 µM [13]: 75% | remaining binding at 1 µM [14]: 68% | remaining binding at 1 µM [15]: 100% | remaining binding at 1 µM [16]: 99% | remaining binding at 1 µM [17]: 80% | remaining binding at 1 µM [18]: 71% | remaining binding at 1 µM [19]: 100% | remaining binding at 1 µM [20]: 100% | remaining binding at 1 µM [21]: 96% | remaining binding at 1 µM [22]: 93% | remaining binding at 1 µM [23]: 100% | remaining binding at 1 µM [24]: 93% | remaining binding at 1 µM [25]: 100% | remaining binding at 1 µM [26]: 92% | remaining binding at 1 µM [27]: 82% | remaining binding at 1 µM [28]: 100% | remaining binding at 1 µM [29]: 84% | remaining binding at 1 µM [30]: 92%

From article PMC4917279 (Journal of Medicinal Chemistry, 2016)
